# From patent US5109111A, “CRF antagonists” (The Salk Institute for Biological Studies, priority 1990, dated 1992)
# Square brackets hold non-standard residues; d marks the D form. Peptide text beside a SMILES is read from it. hArg = N=C(N)NCCCC[C@H](N)C(=O)O; dNle = CCCC[C@@H](N)C(=O)O; Nle = CCCC[C@H](N)C(=O)O; Orn = NCCC[C@H](N)C(=O)O
# Tested on: secretion of ACTH stimulated by oCRF in cultured rat pituitary cells
# Assay: Blocking of oCRF-stimulated ACTH and β-endorphin secretion by cultured rat pituitary cells
# Assay type: cell-based
# Settings: result in words
# Experimental: The effectiveness of synthetic CRF antagonists to block the secretion of ACTH and β-endorphin by cultured rat pituitary cells is measured using the procedure as generally set forth in Vale et al., Endocrinology, 91, 562 (1972).
row,Structure (SMILES),inhibition of the secretion of ACTH and β-END-LI
1,"CCCC[C@H](NC(=O)[C@H](CCC(=O)O)NC(=O)[C@H](CC(C)C)NC(=O)[C@@H](NC(=O)[C@H](CCC(=O)O)NC(=O)[C@H](CCCNC(=N)N)NC(=O)[C@H](CC(C)C)NC(=O)[C@H](CC(C)C)NC(=O)[C@H](Cc1c[nH]cn1)NC(=O)[C@H](Cc1ccccc1)NC(=O)[C@@H](NC(=O)[C@@H](N)CC(C)C)[C@@H](C)O)C(C)C)C(=O)N[C@@H](C)C(=O)N[C@@H](CCCNC(=N)N)C(=O)NCC(=O)N[C@@H](CCC(=O)O)C(=O)N[C@@H](CCC(N)=O)C(=O)N[C@@H](CC(C)C)C(=O)N[C@@H](C)C(=O)N[C@@H](CCC(N)=O)C(=O)N[C@@H](CCC(N)=O)C(=O)N[C@@H](C)C(=O)N[C@@H](Cc1ccc(O)cc1)C(=O)N[C@@H](CO)C(=O)N[C@@H](CC(N)=O)C(=O)N[C@@H](CCCNC(=N)N)C(=O)N[C@@H](CCCN)C(=O)N[C@@H](CC(C)C)C(=O)N[C@@H](CCCC)C(=O)N[C@@H](CCC(=O)O)C(=O)N[C@H](C(=O)N[C@H](C(N)=O)[C@@H](C)CC)[C@@H](C)CC [XV, [Nle^21,38, Gly^24, Tyr^32, Orn^36]-hCRF (10-41)] (H-LTFHLLREVLE[Nle]ARGEQLAQQAYSNR[Orn]L[Nle]EII-NH2)",inhibits the secretion of ACTH and β-END-LI
2,"CCCC[C@H](NC(=O)[C@H](CC(C)C)NC(=O)[C@H](CC(C)C)NC(=O)[C@H](CCCNC(=N)N)NC(=O)[C@H](CC(N)=O)NC(=O)[C@H](CC(N)=O)NC(=O)[C@H](C)NC(=O)[C@H](C)NC(=O)[C@H](CCC(N)=O)NC(=O)[C@H](CCC(N)=O)NC(=O)[C@H](CCCCN)NC(=O)[C@H](CCC(=O)O)NC(=O)[C@H](CCCCN)NC(=O)[C@H](CCC(=O)O)NC(=O)[C@H](CCC(N)=O)NC(=O)[C@H](CCCCN)NC(=O)[C@H](C)NC(=O)[C@@H](NC(=O)[C@H](CCC(=O)O)NC(=O)[C@@H](NC(=O)[C@H](CCSC)NC(=O)[C@H](CCCCN)NC(=O)[C@H](CCCNC(=N)N)NC(=O)[C@H](CC(C)C)NC(=O)[C@H](CC(C)C)NC(=O)[C@H](CCC(=O)O)NC(=O)[C@H](CC(C)C)NC(=O)[C@@H](N)CO)[C@@H](C)CC)[C@@H](C)CC)C(=O)N[C@@H](CC(=O)O)C(=O)N[C@H](C(=O)N[C@@H](CCC(N)=O)C(N)=O)[C@@H](C)O [XVI, [Ala^21, Nle^37, Gln^40]-sauvagine (10-40)] (H-SLELLRKMIEIAKQEKEKQQAANNRLL[Nle]DTQ-NH2)",inhibits the secretion of ACTH and β-END-LI
3,"CCCC[C@H](NC(=O)[C@H](CC(C)C)NC(=O)[C@H](CC(C)C)NC(=O)[C@H](CCCNC(=N)N)NC(=O)[C@H](CC(N)=O)NC(=O)[C@H](CC(N)=O)NC(=O)[C@H](C)NC(=O)[C@H](C)NC(=O)[C@H](CCC(N)=O)NC(=O)[C@H](CCC(N)=O)NC(=O)[C@H](CCCCN)NC(=O)[C@H](CCC(=O)O)NC(=O)[C@H](CCCCN)NC(=O)[C@H](CCC(=O)O)NC(=O)[C@H](CCC(N)=O)NC(=O)[C@H](CCCCNC(=N)N)NC(=O)[C@H](CCC(=O)O)NC(=O)[C@H](C)NC(=O)[C@H](CCC(=O)O)NC(=O)[C@@H](NC(=O)[C@H](CCSC)NC(=O)[C@H](CCCCN)NC(=O)[C@H](CCCNC(=N)N)NC(=O)[C@H](CC(C)C)NC(=O)[C@H](CC(C)C)NC(=O)[C@H](CCC(=O)O)NC(=O)[C@@H](N)CC(C)C)[C@@H](C)CC)C(=O)N[C@@H](CC(=O)O)C(=O)N[C@@H](Cc1ccccc1)C(=O)N[C@H](C(N)=O)[C@@H](C)CC [XVII, [Ala^20, Har^22, Nle^37, Phe^39]-sauvagine (11-40)] (H-LELLRKMIEAE[hArg]QEKEKQQAANNRLL[Nle]DFI-NH2)",inhibits the secretion of ACTH and β-END-LI
4,"CCCC[C@H](NC(=O)[C@H](CC(C)C)NC(=O)[C@H](CC(C)C)NC(=O)[C@H](CCCNC(=N)N)NC(=O)[C@H](CC(N)=O)NC(=O)[C@H](CC(N)=O)NC(=O)[C@H](C)NC(=O)[C@H](C)NC(=O)[C@H](CCC(N)=O)NC(=O)[C@H](CCC(N)=O)NC(=O)[C@H](CCCCN)NC(=O)[C@@H](NC(=O)[C@H](CCCCN)NC(=O)[C@H](CCC(=O)O)NC(=O)[C@H](CCC(N)=O)NC(=O)[C@H](CCCCN)NC(=O)[C@H](CCC(=O)O)NC(=O)[C@@H](NC(=O)[C@H](CCC(=O)O)NC(=O)[C@@H](NC(=O)[C@H](CCSC)NC(=O)[C@H](CCCCN)NC(=O)[C@H](CCCNC(=N)N)NC(=O)[C@H](CC(C)C)NC(=O)[C@H](CC(C)C)NC(=O)[C@H](CCC(=O)O)NC(=O)[C@@H](N)CC(C)C)C(C)C)C(C)C)[C@@H](C)CC)C(=O)N[C@@H](CC(=O)O)C(=O)N[C@H](C(=O)NCC(N)=O)[C@@H](C)O [XVIII, [Val^18,20, Ile^26, Nle^37, Gly^40]-sauvagine(11-40)] (H-LELLRKMVEVEKQEKIKQQAANNRLL[Nle]DTG-NH2)",inhibits the secretion of ACTH and β-END-LI
5,"CCCC[C@H](NC(=O)[C@H](CCC(=O)O)NC(=O)[C@H](CC(C)C)NC(=O)[C@H](CCSC)NC(=O)[C@H](CCC(=O)O)NC(=O)[C@H](CCCNC(=N)N)NC(=O)[C@H](CC(C)C)NC(=O)[C@H](CC(C)C)NC(=O)[C@H](Cc1c[nH]cn1)NC(=O)[C@H](N)Cc1ccccc1)C(=O)N[C@@H](C)C(=O)N[C@@H](CCCCN)C(=O)N[C@@H](C)C(=O)N[C@@H](CCC(=O)O)C(=O)N[C@@H](CCC(N)=O)C(=O)N[C@@H](CCSC)C(=O)N[C@@H](C)C(=O)N[C@@H](CCC(=O)O)C(=O)N[C@@H](CCC(N)=O)C(=O)N[C@@H](C)C(=O)N[C@@H](C)C(=O)N[C@@H](CC(C)C)C(=O)N[C@@H](CC(N)=O)C(=O)N[C@@H](CCCNC(=N)N)C(=O)N[C@@H](CC(C)C)C(=O)N[C@@H](CC(C)C)C(=O)N[C@@H](CCCC)C(=O)N[C@@H](CCC(=O)O)C(=O)N[C@@H](CCC(=O)O)C(=O)N[C@@H](C)C(N)=O [XXI, [D-Phe^12, Met^27, Nle^21,38]-AHC (12-41)] (H-[dF]HLLREMLE[Nle]AKAEQMAEQAALNRLL[Nle]EEA-NH2)",inhibits the secretion of ACTH and β-END-LI
6,"CCCC[C@H](NC(=O)[C@H](CC(C)C)NC(=O)[C@H](CC(C)C)NC(=O)[C@H](CCCNC(=N)N)NC(=O)[C@H](CC(N)=O)NC(=O)[C@H](CC(C)C)NC(=O)[C@H](C)NC(=O)[C@H](C)NC(=O)[C@H](CCC(N)=O)NC(=O)[C@H](CCC(=O)O)NC(=O)[C@H](C)NC(=O)[C@H](C)NC(=O)[C@H](CCC(N)=O)NC(=O)[C@H](CCC(=O)O)NC(=O)[C@H](C)NC(=O)[C@H](CCCCN)NC(=O)[C@H](C)NC(=O)[C@H](CC(C)C)NC(=O)[C@H](CCC(=O)O)NC(=O)[C@H](CC(C)C)NC(=O)[C@H](CCCC)NC(=O)[C@H](CCC(=O)O)NC(=O)[C@H](CCCNC(=N)N)NC(=O)[C@H](CC(C)C)NC(=O)[C@H](CC(C)C)NC(=O)[C@H](Cc1c[nH]cn1)NC(=O)[C@@H](N)Cc1ccccc1)C(=O)N[C@@H](CCC(=O)O)C(=O)N[C@@H](CCC(=O)O)C(=O)N[C@@H](C)C(N)=O [XXII, [Nle^18,38, Leu^21, Ala^27]-AHC (12-41)] (H-FHLLRE[Nle]LELAKAEQAAEQAALNRLL[Nle]EEA-NH2)",inhibits the secretion of ACTH and β-END-LI
7,"CCCC[C@H](NC(=O)[C@H](CC(C)C)NC(=O)[C@H](CC(C)C)NC(=O)[C@H](CCCNC(=N)N)NC(=O)[C@H](CC(N)=O)NC(=O)[C@H](CC(C)C)NC(=O)[C@H](C)NC(=O)[C@H](C)NC(=O)[C@H](CCC(N)=O)NC(=O)[C@H](CCC(=O)O)NC(=O)[C@H](C)NC(=O)[C@H](CCC(=O)O)NC(=O)[C@H](CCCCN)NC(=O)[C@H](CCC(=O)O)NC(=O)[C@H](C)NC(=O)[C@H](CCCCN)NC(=O)[C@H](CCC(=O)O)NC(=O)[C@H](CCSC)NC(=O)[C@H](CCC(=O)O)NC(=O)[C@H](CC(C)C)NC(=O)[C@H](CCSC)NC(=O)[C@H](CCC(=O)O)NC(=O)[C@H](CCCNC(=N)N)NC(=O)[C@H](CC(C)C)NC(=O)[C@H](CC(C)C)NC(=O)[C@H](CCC(=O)O)NC(=O)[C@@H](N)CC(C)C)C(=O)N[C@@H](CCC(=O)O)C(=O)N[C@@H](CCC(=O)O)C(=O)N[C@@H](C)C(N)=O [XXIII, [Leu^12, Glu^13,22, Lys^26, Nle^38]-AHC (12-41)] (H-LELLREMLEMEKAEKEAEQAALNRLL[Nle]EEA-NH2)",inhibits the secretion of ACTH and β-END-LI
8,"CCCC[C@H](NC(=O)[C@H](CC(C)C)NC(=O)[C@H](CC(C)C)NC(=O)[C@H](CCCNC(=N)N)NC(=O)[C@H](CC(N)=O)NC(=O)[C@H](C)NC(=O)[C@H](C)NC(=O)[C@H](C)NC(=O)[C@H](CCC(N)=O)NC(=O)[C@H](CCC(=O)O)NC(=O)[C@H](C)NC(=O)[C@H](CCC(=O)O)NC(=O)[C@H](CCC(N)=O)NC(=O)[C@H](CCC(=O)O)NC(=O)[C@H](C)NC(=O)[C@H](CCCCN)NC(=O)[C@H](C)NC(=O)[C@H](CCSC)NC(=O)[C@H](CCC(=O)O)NC(=O)[C@H](CC(C)C)NC(=O)[C@H](CCSC)NC(=O)[C@H](CCC(=O)O)NC(=O)[C@H](CCCNC(=N)N)NC(=O)[C@H](CC(C)C)NC(=O)[C@H](CC(C)C)NC(=O)[C@H](CCC(=O)O)NC(=O)[C@H](N)CC(C)C)C(=O)N[C@@H](CCC(=O)O)C(=O)N[C@@H](CCC(=O)O)C(=O)N[C@@H](C)C(N)=O [XXV, [D-Leu^12, Glu^13, Ala^33, Nle^38]-AHC (12-41)] (H-[dL]ELLREMLEMAKAEQEAEQAAANRLL[Nle]EEA-NH2)",inhibits the secretion of ACTH and β-END-LI
9,"CCCC[C@@H](N)C(=O)N[C@@H](Cc1c[nH]cn1)C(=O)N[C@@H](CC(C)C)C(=O)N[C@@H](CC(C)C)C(=O)N[C@@H](CCCNC(=N)N)C(=O)N[C@@H](CCC(=O)O)C(=O)N[C@@H](CCCC)C(=O)N[C@@H](CC(N)=O)C(=O)N[C@@H](CCC(=O)O)C(=O)N[C@@H](CCCC)C(=O)N[C@@H](CC(=O)O)C(=O)N[C@@H](CCCCN)C(=O)N[C@@H](C)C(=O)N[C@@H](CCC(=O)O)C(=O)N[C@@H](CCC(N)=O)C(=O)N[C@@H](Cc1ccccc1)C(=O)N[C@@H](C)C(=O)N[C@@H](CCC(=O)O)C(=O)N[C@@H](CCC(N)=O)C(=O)N[C@@H](C)C(=O)N[C@@H](C)C(=O)N[C@@H](CC(C)C)C(=O)N[C@@H](CC(N)=O)C(=O)N[C@@H](CCCNC(=N)N)C(=O)N[C@@H](CC(C)C)C(=O)N[C@@H](CC(C)C)C(=O)N[C@@H](CCCC)C(=O)N[C@@H](CCC(=O)O)C(=O)N[C@@H](CCC(=O)O)C(=O)N[C@@H](C)C(N)=O [XXVII, [D-Nle^12, Nle^18,21,38, Asn^19, Asp^22, Phe^27]-AHC(12-41)] (H-[dNle]HLLRE[Nle]NE[Nle]DKAEQFAEQAALNRLL[Nle]EEA-NH2)",inhibits the secretion of ACTH and β-END-LI
